Measured values published in patent US10294207B2, “Pyrazole derivatives as TNIK, IKKϵ and TBK1 inhibitor and pharmaceutical composition comprising same” (GREEN CROSS CORPORATION, priority 2015, dated 2019).

What was measured:
TNIK = molecular target: T1, TNIK (Homo sapiens, UniProt Q9UKE5); experiment: TNIK inhibition, ADP-Glo Kinase Assay; type: biochemical; details: luminometer
T1 construct: purchased Promega V4158
Method: Inhibition activities on TNIK, IKKε and TBK1 were evaluated using the compounds of Examples 1 to 254.
The inhibition activities on TNIK, IKKε and TBK1 were measured by a luminometer, TNIK/IKKε/TBK1 Kinase Enzyme System (Promega, Ca# V4158; Invitrogen, PR8031B, Promega, Ca# V3991) and ADP-Glo Kinase Assay using ADP-Glo™ Kinase Analysis Kit (Promega, Ca# V9101) and a kinase reaction buffer [40 mM Tris(pH 7.5), 20 mM MgCl2, 0.1 mg/mL BSA] in accordance with the manufacturer's protocol.

TBK1 = molecular target: T2, TBK1 (Homo sapiens, UniProt Q9UHD2); experiment: TBK1 inhibition, ADP-Glo Kinase Assay; type: biochemical; details: luminometer
T2 construct: purchased Promega V3991
T2 sequence (Q9UHD2 1-729): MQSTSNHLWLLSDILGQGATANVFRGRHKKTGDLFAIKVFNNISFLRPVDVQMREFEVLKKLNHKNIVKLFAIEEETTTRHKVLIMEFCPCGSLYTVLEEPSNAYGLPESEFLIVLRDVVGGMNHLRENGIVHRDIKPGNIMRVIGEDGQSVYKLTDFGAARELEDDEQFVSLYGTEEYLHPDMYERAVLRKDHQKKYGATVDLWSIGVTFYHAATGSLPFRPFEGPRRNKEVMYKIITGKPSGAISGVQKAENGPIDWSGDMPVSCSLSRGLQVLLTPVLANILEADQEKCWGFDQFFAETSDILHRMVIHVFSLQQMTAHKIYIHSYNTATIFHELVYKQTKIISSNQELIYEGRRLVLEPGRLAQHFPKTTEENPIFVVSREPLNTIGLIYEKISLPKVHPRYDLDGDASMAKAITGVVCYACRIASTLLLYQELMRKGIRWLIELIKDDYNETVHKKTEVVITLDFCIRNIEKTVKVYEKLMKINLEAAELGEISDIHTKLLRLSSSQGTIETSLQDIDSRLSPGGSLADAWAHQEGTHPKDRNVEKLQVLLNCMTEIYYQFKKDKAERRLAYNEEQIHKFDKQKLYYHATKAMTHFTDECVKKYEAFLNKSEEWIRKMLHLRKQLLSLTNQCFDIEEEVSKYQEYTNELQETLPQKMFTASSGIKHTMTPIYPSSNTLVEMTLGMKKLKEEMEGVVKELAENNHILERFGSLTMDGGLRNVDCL
Summary of the method: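 Each recombinant kinase enzyme system was run per the manufacturer's protocol in 40 mM Tris pH 7.5, 20 mM MgCl2 and 0.1 mg/mL BSA. Kinase activity was detected as ADP formation by ADP-Glo luminescence.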

T1 sequence (Q9UKE5 1-367 limits assumed): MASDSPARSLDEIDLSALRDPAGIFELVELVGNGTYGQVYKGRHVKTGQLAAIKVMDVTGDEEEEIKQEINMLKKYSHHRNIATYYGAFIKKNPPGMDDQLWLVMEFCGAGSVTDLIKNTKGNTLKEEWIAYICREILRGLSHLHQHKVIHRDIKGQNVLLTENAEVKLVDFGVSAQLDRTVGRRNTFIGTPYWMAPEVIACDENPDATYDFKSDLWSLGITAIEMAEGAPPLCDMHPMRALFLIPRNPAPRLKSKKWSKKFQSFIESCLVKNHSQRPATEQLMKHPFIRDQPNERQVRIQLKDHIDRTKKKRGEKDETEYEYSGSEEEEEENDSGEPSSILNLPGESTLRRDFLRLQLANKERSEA

| Structure (SMILES) | IC50 (TNIK) [µM] | IC50 (TBK1) [µM] |
| --- | --- | --- |
| Cc1cnc(-c2cc3[nH]nc(NC(=O)c4ccc(N5CCOCC5)cc4)c3s2)s1 [Example 219, N-(5-(5-methylthiazol-2-yl)-1H-thieno[3,2-c]pyrazol-3-yl)-4-morpholinobenzamide] | 0.13 | 0.33 |
| Cc1cnc(-c2cc3[nH]nc(NC(=O)c4ccccc4)c3s2)o1 [Example 220, N-(5-(5-methyloxazol-2-yl)-1H-thieno[3,2-c]pyrazol-3-yl)benzamide] | 0.36 | 1.2 |
| Cc1cnc(-c2cc3[nH]nc(NC(=O)c4ccc(F)cc4)c3s2)o1 [Example 221, 4-fluoro-N-(5-(5-methyloxazol-2-yl)-1H-thieno[3,2-c]pyrazol-3-yl)benzamide] | 0.65 | 1.7 |
| COc1ccc(C(=O)Nc2n[nH]c3cc(-c4ncc(C)o4)sc23)cc1 [Example 222, 4-methoxy-N-(5-(5-methyloxazol-2-yl)-1H-thieno[3,2-c]pyrazol-3-yl)benzamide] | 0.31 | 0.35 |
| Cc1cnc(-c2cc3[nH]nc(NC(=O)c4ccc(N(C)C)cc4)c3s2)o1 [Example 223, 4-(dimethylamino)-N-(5-(5-methyloxazol-2-yl)-1H-thieno[3,2-c]pyrazol-3-yl)benzamide] | 0.11 | 0.094 |
| Cc1cnc(-c2cc3[nH]nc(NC(=O)c4ccc(NCCN5CCCC5)cc4)c3s2)o1 [Example 226, N-(5-(5-methyloxazol-2-yl)-1H-thieno[3,2-c]pyrazol-3-yl)-4-((2-(pyrrolidin-1-yl)ethyl)amino)benzamide] | 0.15 | 0.12 |
| Cc1cnc(-c2cc3[nH]nc(NC(=O)c4ccc(NCCN5CCOCC5)cc4)c3s2)o1 [Example 227, N-(5-(5-methyloxazol-2-yl)-1H-thieno[3,2-c]pyrazol-3-yl)-4-((2-morpholinoethyl)amino)benzamide] | 0.085 | 0.12 |
| Cc1cnc(-c2cc3[nH]nc(NC(=O)c4ccc(NCCO)cc4)c3s2)o1 [Example 228, 4-((2-hydroxyethyl)amino)-N-(5-(5-methyloxazol-2-yl)-1H-thieno[3,2-c]pyrazol-3-yl)benzamide] | 0.11 | 0.12 |
| COCCNc1ccc(C(=O)Nc2n[nH]c3cc(-c4ncc(C)o4)sc23)cc1 [Example 229, 4-((2-methoxyethyl)amino)-N-(5-(5-methyloxazol-2-yl)-1H-thieno[3,2-c]pyrazol-3-yl)benzamide] | 0.15 | 0.14 |
| Cc1cnc(-c2cc3[nH]nc(NC(=O)c4cccc(F)c4)c3s2)o1 [Example 230, 3-fluoro-N-(5-(5-methyloxazol-2-yl)-1H-thieno[3,2-c]pyrazol-3-yl)benzamide] | 0.66 | 1.7 |
| COC(=O)c1cc2[nH]nc(-c3ccc(OC)cc3)c2s1 [Example 231, methyl 3-(4-methoxyphenyl)-1H-thieno[3,2-c]pyrazole-5-carboxylate] | 0.54 | > 10 |
| CCNC(=O)c1cc2[nH]nc(-c3ccc(OC)cc3)c2s1 [Example 232, N-ethyl-3-(4-methoxyphenyl)-1H-thieno[3,2-c]pyrazole-5-carboxamide] | 1.95 | > 10 |
| COc1ccc(-c2n[nH]c3cc(C(=O)NC(C)C)sc23)cc1 [Example 233, N-isopropyl-3-(4-methoxyphenyl)-1H-thieno[3,2-c]pyrazole-5-carboxamide] | 2.86 | > 10 |
| COc1ccc(-c2n[nH]c3cc(-c4ncc(C)o4)sc23)cc1 [Example 235, 2-(3-(4-methoxyphenyl)-1H-thieno[3,2-c]pyrazol-5-yl)-5-methyloxazole] | 0.34 | > 10 |
| COC(=O)c1cc2[nH]nc(-c3ccccc3)c2s1 [Example 236, methyl 3-phenyl-1H-thieno[3,2-c]pyrazole-5-carboxylate] | 1.27 | > 10 |
| COC(=O)c1cc2[nH]nc(-c3ccc(F)cc3)c2s1 [Example 239, methyl 3-(4-fluorophenyl)-1H-thieno[3,2-c]pyrazole-5-carboxylate] | 0.86 | > 10 |
| CCNC(=O)c1cc2[nH]nc(-c3ccc(F)cc3)c2s1 [Example 240, N-ethyl-3-(4-fluorophenyl)-1H-thieno[3,2-c]pyrazole-5-carboxamide] | 2.85 | > 10 |
| CCNC(=O)c1cc2[nH]nc(-c3ccc(N4CCOCC4)cc3)c2s1 [Example 241, N-ethyl-3-(4-morpholinophenyl)-1H-thieno[3,2-c]pyrazole-5-carboxamide] | 1.09 | > 10 |
| O=C(NCCN1CCOCC1)c1cc2[nH]nc(-c3ccc(F)cc3)c2s1 [Example 242, 3-(4-fluorophenyl)-N-(2-morpholinoethyl)-1H-thieno[3,2-c]pyrazole-5-carboxamide] | > 20 | > 10 |
| Cc1cnc(-c2cc3[nH]nc(-c4ccc(N5CCOCC5)cc4)c3s2)o1 [Example 243, 4-(4-(5-(5-methyloxazol-2-yl)-1H-thieno[3,2-c]pyrazol-3-yl)phenyl)morpholine] | 0.15 | > 10 |
| COC(=O)c1cc2[nH]nc(-c3ccc(NC(C)=O)cc3)c2s1 [Example 245, methyl 3-(4-acetamidophenyl)-1H-thieno[3,2-c]pyrazole-5-carboxylate] | 0.16 |  |
| Cc1cnc(-c2cc3[nH]nc(-c4ccc(F)cc4)c3s2)o1 [Example 246, 2-(3-(4-fluorophenyl)-1H-thieno[3,2-c]pyrazol-5-yl)-5-methyloxazole] | 0.5 |  |
| Cc1cnc(-c2cc3[nH]nc(-c4ccc(F)cc4)c3s2)s1 [Example 247, 3-(4-fluorophenyl)-5-(5-methylthiazol-2-yl)-1H-thieno[3,2-c]pyrazole] | > 20 |  |
| O=C(c1cc2[nH]nc(-c3ccc(N4CCOCC4)cc3)c2s1)N1CCCC1 [Example 248, (3-(4-morpholinophenyl)-1H-thieno[3,2-c]pyrazol-5-yl)(pyrrolidin-1-yl)methanone] | 8.09 |  |
| COC(=O)c1cc2[nH]nc(-c3ccc(OCCN4CCOCC4)cc3)c2s1 [Example 249, methyl 3-(4-(2-morpholinoethoxy)phenyl)-1H-thieno[3,2-c]pyrazole-5-carboxylate] | 0.47 |  |
| Cc1cnc(-c2cc3[nH]nc(-c4ccc(OCCN5CCOCC5)cc4)c3s2)o1 [Example 250, 4-(2-(4-(5-(5-methyloxazol-2-yl)-1H-thieno[3,2-c]pyrazol-3-yl)phenoxy)ethyl)morpholine] | 0.11 |  |
| Cc1cnc(-c2cc3[nH]nc(NC(=O)c4ccc(N(C)C)cc4)c3s2)s1 [Example 251, 4-(dimethylamino)-N-(5-(5-methylthiazol-2-yl)-1H-thieno[3,2-c]pyrazol-3-yl)benzamide] | 0.25 | 1.4 |
| CCc1cnc(-c2cc3[nH]nc(NC(=O)c4ccc(N5CCOCC5)cc4)c3s2)s1 [Example 252, N-(5-(5-ethylthiazol-2-yl)-1H-thieno[3,2-c]pyrazol-3-yl)-4-morpholinobenzamide] | 0.41 | 1.3 |
| Cc1cnc(-c2cc3[nH]nc(NC(=O)c4ccc(NCCN5CCCCC5)cc4)c3s2)s1 [Example 253, N-(5-(5-methylthiazol-2-yl)-1H-thieno[3,2-c]pyrazol-3-yl)-4-((2-(piperidin-1-yl)ethyl)amino)benzamide] | 0.28 | 0.62 |
